{
  "source": "patent US20210267978A1",
  "about": "“NANOPARTICLE FORMULATIONS OF IKE AND METHODS OF USE THEREOF” (The Trustees of Columbia University in the City of New York, priority 2018, published 2021)",
  "key": {"[1]": {"test_system": "SUDHL6 cells", "experiment": "Reduced glutathione measurement in cell culture (Fluorometric-Green)", "format": "cell-based", "conditions": "Homo sapiens, SU-DHL-6, 24 hours, average of three experiments, read-out: IC50 of GSH depletion", "experimental": "2.4 million cells were incubated with DMSO, IKE, or β-mercaptoethanol (β-Me) at a density of 0.2 million cells/mL for 24 h. Cells were collected and washed with cold PBS once. Cell number was counted by Vi-Cell. Cells were resuspended in ice cold RIPA buffer (Thermo Fisher Scientific, 89900) with 100 μL/one million cells. Samples were centrifuged for 15 min at 4° C. at 17,000×g. The resulting supernatant was deproteinized using a trichloroacetic acid and sodium bicarbonate solution and kept on ice. The sample was diluted with assay buffer provided in GSH/GSSG Ratio Detection Assay Kit (Abcam, ab13881) ten-fold. Reduced glutathione (GSH) levels were determined using Fluorometric-Green provided in the kit following the manufacture's protocol. 384-well (Corning) low volume black flat bottom polystyrene non-treated microplates 1230F99 were used in this experiment."}, "[2]": {"test_system": "SUDHL6 xenograft tumor tissue", "experiment": "Immunofluorescence on paraffin-embedded tumor sections after one IKE dose", "format": "in vivo, NCG mice", "conditions": "4 h after one dose of IKE", "experimental": "NCG mice 6-weeks of age were injected with 10 million SUDHL-6 cells subcutaneously. Visible tumors appeared after 2 weeks. Tumor size was measured by electronic caliper every 2 days and calculated using the formula: 0.5×length×width^2. After another 2 weeks, mice were randomly separated into group of 3 mice per cage with roughly tumor size (1200 mm^3). Mice were dosed at 50 mg/kg IKE, 22 mg/kg IKE, 22 mg/kg IKE PEG-PLGA nanoparticles (equal to 600 mg/kg PEG-PLGA) using IP at one time and samples were collected at 0, 1, 2, 3, 4, 6, and 24 h with three mice per time point. Mice were dosed with Vehicle 1 and Vehicle 2 (600 mg/kg PEG-PLGA) by IP and samples were collected at 24 h. Mice were euthanized using a CO2 gas chamber before xenograft dissection and cardio puncture. Plasma samples were collected and analyzed as described above. […] After drying, the samples were resuspended in 100 μL of methanol and analyzed on the LC-MS with each sample analyzed twice. […] The concentration of IKE in the sample was determined by comparison against a standard curve of IKE in the range of 25 to 2,500 ng/mL. […] Pharmacokinetics parameters of IKE were assessed using Prism fitted with Lognormal of one phase exponential decay. […]\nTumor tissue was fixed in 4% paraformaldehyde (PFA) for 24 h at 4° C. followed by washing three times with PBS. […] Then the above steps were followed for staining and quantification."}, "[3]": {"test_system": "some cell lines", "conditions": "cited from earlier work"}, "[4]": {"test_system": "SUDHL6 cells", "experiment": "qPCR analysis of gene expression in cell culture", "format": "cell-based", "experimental": "To perform qPCR analysis in cell culture, DLBCL cells were treated with 0-10 μM IKE, Fer-1, or β-Me for the indicated times. RNA was extracted using the Qiashredder and Qiagen RNeasy Mini kits (Qiagen) according to the manufacture's protocol. 2 μg RNA from each sample was reversed transcribed to cDNA using a High Capacity cDNA Reverse Transcription Kit (Thermo Fisher Scientific, 4368814). Quantitative PCR reactions were performed using Power SYBR Green PCR Master Mix (Applied Biosystems) with triplicate measurement on ViiA 7 Real-Time PCR instrument (Thermo Fischer). HPRT1 was used as an internal reference. Differences in mRNA levels compared with HPRT1 were computed between vehicle and experimental groups using the ΔΔCt method. The primers used in the study were listed below."}, "[5]": {"test_system": "SUDHL 10", "experiment": "DLBCL cell line sensitivity to IKE (CellTiter-Glo viability, 24 h)", "format": "cell-based", "conditions": "Homo sapiens, SU-DHL10; SUDHL 10, 24 hours; read-out: cell line sensitivity to IKE (IC50 class)", "experimental": "(§1) DLBCL cells were plated at 10,000 cells per well in white 384-well plates (32 μL per well) in technical duplicates and incubated overnight. The cells were then treated with 8 μL medium containing a two-fold dilution series of vehicle (DMSO), IKE (starting from 100 μM) with or without Fer-1 (starting from 200 μM). After 24 h incubation, 40 μL of 50% CellTiter-Glo (Promega) 50% cell culture medium was added to each well and incubated at room temperature with shaking for 15 min. Luminescence was measured using a Victor X5 plate reader (PerkinElmer). All cell viability data were normalized to the DMSO vehicle condition. Experiments were performed three independent times with different passages for each cell line."}, "[6]": {"test_system": "RIVA", "experiment": "DLBCL cell line sensitivity to IKE (CellTiter-Glo viability, 24 h)", "format": "cell-based", "experimental": "as §1"}, "[7]": {"test_system": "U937", "experiment": "DLBCL cell line sensitivity to IKE (CellTiter-Glo viability, 24 h)", "format": "cell-based", "conditions": "Homo sapiens, U-937; U937, 24 hours; read-out: cell line sensitivity to IKE (IC50 class)", "experimental": "as §1"}, "[8]": {"test_system": "LY 8", "experiment": "DLBCL cell line sensitivity to IKE (CellTiter-Glo viability, 24 h)", "format": "cell-based", "conditions": "LY 8, 24 hours; read-out: cell line sensitivity to IKE (IC50 class)", "experimental": "as §1"}, "[9]": {"test_system": "SUDHL 16", "experiment": "DLBCL cell line sensitivity to IKE (CellTiter-Glo viability, 24 h)", "format": "cell-based", "conditions": "Homo sapiens, SU-DHL-16; SUDHL 16, 24 hours; read-out: cell line sensitivity to IKE (IC50 class)", "experimental": "as §1"}, "[10]": {"test_system": "WSU-NHL", "experiment": "DLBCL cell line sensitivity to IKE (CellTiter-Glo viability, 24 h)", "format": "cell-based", "experimental": "as §1"}},
  "data": [
    {"compound": "CC(C)Oc1ccc(C(=O)Cn2ccnc2)cc1-n1c(CN2CCN(C(=O)COc3ccc(Cl)cc3)CC2)nc2ccccc2c1=O", "note": "[IKE, Imidazole ketone erastin]", "values": [
      {"measurement": "IC50", "setting": "[1]", "result": 0.034, "unit": "µM"},
      {"measurement": "increase of 8-OHdG (fluorescence intensity) relative to vehicle", "setting": "[2]", "result": 1.5, "unit": "fold"},
      {"measurement": "increase of dihydropyridine-MDA-lysine adducts (fluorescence intensity) relative to vehicle", "setting": "[2]", "result": 1.6, "unit": "fold"},
      {"measurement": "potency improvement compared with erastin", "setting": "[3]", "result": "> 100", "unit": "×"},
      {"measurement": "GPX4, CBS and ACSL4 expression", "setting": "[4]; DLBCL cells, IKE treatment (data not shown)", "result": "not upregulated"},
      {"measurement": "SLC7A11, PTGS2 and CHAC1 expression", "setting": "[4]; SUDHL6 cells following IKE treatment", "result": "significantly increased"},
      {"measurement": "SLC7A11 expression induced starting from (time post incubation)", "setting": "[4]; SUDHL-6 cells, 500 nM IKE", "result": 3, "unit": "h"},
      {"measurement": "expression of lipid metabolism genes ACC1, ELOVL7, ATGL, sPLA2F, LPEAT1, LPCAT4, ALOX12, ALOX15", "setting": "[4]; SUDHL-6 cells, 500 nM IKE", "result": "upregulated"},
      {"measurement": "highest mRNA change (CHAC1)", "setting": "[4]; SUDHL-6 cells, 500 nM IKE", "result": 33, "unit": "fold"},
      {"measurement": "increased PTGS2 expression", "setting": "[4]; SUDHL-6 cells, 500 nM IKE, starting from 5 minutes", "result": "over 10 fold"},
      {"measurement": "increased CHAC1 expression", "setting": "[4]; SUDHL-6 cells, 500 nM IKE, starting from post 5 minutes", "result": "over 5 fold"},
      {"measurement": "IC50", "setting": "[5]", "result": "< 0.1", "unit": "µM"},
      {"measurement": "cell line sensitivity to IKE (IC50 class)", "setting": "[6]", "result": "moderately resistant"},
      {"measurement": "IC50", "setting": "[7]", "result": "> 10", "unit": "µM"},
      {"measurement": "IC50", "setting": "[8]", "result": "< 0.1", "unit": "µM"},
      {"measurement": "IC50", "setting": "[9]", "result": "< 0.1", "unit": "µM"},
      {"measurement": "cell line sensitivity to IKE (IC50 class)", "setting": "[10]", "result": "moderately resistant"}
    ]}
  ]
}
